Experimental data: ChEMBL document CHEMBL6115029, “Discovery of Daraxonrasib (RMC-6236), a Potent and Orally Bioavailable RAS(ON) Multi-selective, Noncovalent Tri-complex Inhibitor for the Treatment of Patients with Multiple RAS-Addicted Cancers” (J Med Chem, 2025)
Converted amounts (≈) assume the structure as drawn.

Columns and labels:
[1] = target: Peptidyl-prolyl cis-trans isomerase A (Homo sapiens, UniProt P62937); assay: Binding affinity to Avi-tagged Cyclophilin A (unknown origin) assessed as dissociation constant by SPR analysis
[2] = Binding affinity to Cyclophilin A/Avi-tagged KRAS G12V mutant (1 to 169 residues) (unknown origin) assessed as dissociation constant by SPR analysis; design: species or system Homo sapiens
[3] = Binding affinity to Cyclophilin A/Avi-tagged KRAS G12D mutant (1 to 169 residues) (unknown origin) assessed as dissociation constant by SPR analysis; design: species or system Homo sapiens
[4] = Binding affinity to Cyclophilin A/Avi-tagged KRAS G12C mutant (1 to 169 residues) (unknown origin) assessed as dissociation constant by SPR analysis; design: species or system Homo sapiens
[5] = Inhibition of 6His-tagged KRAS G12V mutant(1 to 169 residues)/GST-tagged GMPPNP-bound BRAF RBD (155 to 229 reisudes)/Cyclophilin A (unknown origin) tri-complex protein-protein interaction incubated for 3 hrs by TR-FERT based disruption assay; design: species or system Homo sapiens
[6] = Inhibition of 6His-tagged KRAS G12D mutant(1 to 169 residues)/GST-tagged GMPPNP-bound BRAF RBD (155 to 229 reisudes)/Cyclophilin A (unknown origin) tri-complex protein-protein interaction incubated for 3 hrs by TR-FERT based disruption assay; design: species or system Homo sapiens
[7] = Inhibition of 6His-tagged KRAS G12C mutant(1 to 169 residues)/GST-tagged GMPPNP-bound BRAF RBD (155 to 229 reisudes)/Cyclophilin A (unknown origin) tri-complex protein-protein interaction incubated for 3 hrs by TR-FERT based disruption assay; design: species or system Homo sapiens
[8] = Inhibition of 6His-tagged KRAS G12R mutant(1 to 169 residues)/GST-tagged GMPPNP-bound BRAF RBD (155 to 229 reisudes)/Cyclophilin A (unknown origin) tri-complex protein-protein interaction incubated for 3 hrs by TR-FERT based disruption assay; design: species or system Homo sapiens
[9] = Inhibition of 6His-tagged KRAS G61H mutant(1 to 169 residues)/GST-tagged GMPPNP-bound BRAF RBD (155 to 229 reisudes)/Cyclophilin A (unknown origin) tri-complex protein-protein interaction incubated for 3 hrs by TR-FERT based disruption assay; design: species or system Homo sapiens
[10] = Inhibition of 6His-tagged NRAS G61K mutant(1 to 169 residues)/GST-tagged GMPPNP-bound BRAF RBD (155 to 229 reisudes)/Cyclophilin A (unknown origin) tri-complex protein-protein interaction incubated for 3 hrs by TR-FERT based disruption assay; design: species or system Homo sapiens
[11] = Inhibition of 6His-tagged wildtype KRAS (1 to 169 residues)/GST-tagged GMPPNP-bound BRAF RBD (155 to 229 reisudes)/Cyclophilin A (unknown origin) tri-complex protein-protein interaction incubated for 3 hrs by TR-FERT based disruption assay; design: species or system Homo sapiens
[12] = Inhibition of 6His-tagged wildtype HRAS (1 to 169 residues)/GST-tagged GMPPNP-bound BRAF RBD (155 to 229 reisudes)/Cyclophilin A (unknown origin) tri-complex protein-protein interaction incubated for 3 hrs by TR-FERT based disruption assay; design: species or system Homo sapiens
[13] = Inhibition of 6His-tagged wildtype NRAS (1 to 169 residues)/GST-tagged GMPPNP-bound BRAF RBD (155 to 229 reisudes)/Cyclophilin A (unknown origin) tri-complex protein-protein interaction incubated for 3 hrs by TR-FERT based disruption assay; design: species or system Homo sapiens
CAPAN-1 = assay: Cytotoxicity against human CAPAN-1 cells harboring KRAS G12V mutant cultured as 2D cells assessed as reduction in cell viability incubated for 120 hrs by CellTiter-Glo luminescence assay; assay type: functional, cell-based; conditions: CAPAN-1, 120 h
ASPC1 = assay: Cytotoxicity against human ASPC1 cells harboring KRAS G12D mutant cultured as 2D cells assessed as reduction in cell viability incubated for 120 hrs by CellTiter-Glo luminescence assay; assay type: functional, cell-based; conditions: ASPC1, 120 h
NCI-H358 = assay: Cytotoxicity against human NCI-H358 cells harboring KRAS G12C mutant cultured as 2D cells assessed as reduction in cell viability incubated for 120 hrs by CellTiter-Glo luminescence assay; assay type: functional, cell-based; conditions: NCI-H358, 120 h
NCI-H1975 = assay: Cytotoxicity against human NCI-H1975 cells harboring wildtype KRAS cultured as 2D cells assessed as reduction in cell viability incubated for 120 hrs by CellTiter-Glo luminescence assay; assay type: functional, cell-based; conditions: NCI-H1975, 120 h
[14] = Inhibition of ERK1/2 phosphorylation in human CAPAN-1 cells harboring KRAS G12V mutant incubated for 4 hrs by AlphaLISA assay; assay type: cell-based; conditions: CAPAN-1, 4 h
[15] = Inhibition of ERK1/2 phosphorylation in human NCI-H358 cells harboring KRAS G12C mutant incubated for 4 hrs by AlphaLISA assay; assay type: cell-based; conditions: NCI-H358, 4 h
[16] = Inhibition of ERK1/2 phosphorylation in human ASPC1 cells harboring KRAS G12D mutant incubated for 4 hrs by AlphaLISA assay; assay type: cell-based; conditions: ASPC1, 4 h
[17] = Metabolic stability in mouse liver microsomes assessed as half-life at 2 uM measured upto 60 mins in presence of NADPH by LC-MS/MS analysis; assay type: ADME, Microsome
A-375 = assay: Cytotoxicity against human A-375 cells assessed as reduction in cell viability incubated for 120 hrs by CellTiter-Glo luminescence assay; assay type: functional, cell-based; conditions: A-375, 120 h
[18] = Kinetic solubility of compound in PBS at pH 7.4 measured after 5 hrs by UV analysis; assay type: physicochemical; conditions: read-out: Kinetic_solubility
[19] = Apparent permeability across apical to basolateral side in human Caco-2 cells at 5 uM incubated for 2 hrs by LC-MS/MS analysis; assay type: ADME, cell-based
[20] = Efflux ratio of apparent permeability in human Caco-2 cells at 5 uM incubated for 2 hrs by LC-MS/MS analysis; assay type: ADME, cell-based
[21] = Clearance in female BALB/c mouse blood at 1 mg/kg, iv measured after 24 hrs by LC-MS/MS analysis; assay type: ADME, organism-based
[22] = Clearance in female BALB/c mouse plasma at 1 mg/kg, iv measured after 24 hrs by LC-MS/MS analysis; assay type: ADME, organism-based
[23] = Oral bioavailability in female BALB/c mouse blood at 10 mg/kg measured after 24 hrs by LC-MS/MS analysis; assay type: ADME, organism-based
[24] = Oral bioavailability in female BALB/c mouse plasma at 10 mg/kg measured after 24 hrs by LC-MS/MS analysis; assay type: ADME, organism-based
[25] = Lipophilicity, logD of compound at pH 7.4 by Agilent 1290 II uPLC analysis; assay type: physicochemical; conditions: buffer

Chain of Peptidyl-prolyl cis-trans isomerase A (P62937 whole entry, the tested form may be a part): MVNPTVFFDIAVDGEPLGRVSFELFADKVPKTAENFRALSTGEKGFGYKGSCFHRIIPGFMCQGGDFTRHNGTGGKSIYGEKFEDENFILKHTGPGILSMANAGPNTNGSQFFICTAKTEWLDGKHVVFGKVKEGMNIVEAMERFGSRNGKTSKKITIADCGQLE

Kd [1] [nM] | Kd [2] [nM] | Kd [3] [nM] | Kd [4] [nM] | IC50 [5] [nM] | IC50 [6] [nM] | IC50 [7] [nM] | IC50 [11] [nM] | EC50 [14] [nM] | EC50 [15] [nM] | EC50 [16] [nM] | half-life at 2 µM [17] [h] | solubility kinetic at 5 h [18] [µM] | Papp A→B at 2 h, 5 µM [19] [×10⁻⁶ cm/s] | efflux ratio at 2 h, 5 µM [20] | SMILES | EC50 (CAPAN-1) [nM] | EC50 (ASPC1) [nM] | EC50 (NCI-H358) [nM] | EC50 (NCI-H1975) [nM] | EC50 (A-375) [nM] | also measured
897 | 5830 | 3550 | 2050 | 4400 | 12900 | 1600 | 5100 | – | – | – | – | – | – | – | CCn1c(-c2cccnc2[C@H](C)OC)c2c3cc(ccc31)-c1cccc(c1)C[C@H](NC(=O)[C@H](C(C)C)N(C)C(=O)[C@H]1CCN(C(C)=O)C1)C(=O)N1CCC[C@H](N1)C(=O)OCC(C)(C)C2 | 948 | 1860 | 1090 | 1140 | – | IC50 [8]: 8400 nM; IC50 [9]: 1300 nM; IC50 [10]: 3500 nM; IC50 [12]: 3500 nM; IC50 [13]: 3200 nM
1150 | 4930 | 10700 | 2820 | 3520 | 26100 | 2040 | – | – | – | – | – | – | – | – | CCn1c(-c2cccnc2[C@H](C)OC)c2c3cc(ccc31)-c1cccc(c1)C[C@H](NC(=O)[C@H](C(C)C)N(C)C(C)=O)C(=O)N1CCC[C@H](N1)C(=O)OCC(C)(C)C2 | 1140 | 4410 | 1530 | > 10000 | – | –
77 | – | – | – | 55 | 249 | 40 | 103 | 0.7 | 2.9 | 4.2 | > 2 | 56 (≈ 47.8 µg/mL) | 0.6 | 12 | CCn1c(-c2cc(N3CCN(C4COC4)CC3)cnc2[C@H](C)OC)c2c3cc(ccc31)-c1csc(n1)C[C@H](NC(=O)[C@H]1C[C@@H]1C)C(=O)N1CCC[C@H](N1)C(=O)OCC(C)(C)C2 | 1.8 | 4.1 | 0.8 | 0.9 | > 10000 | clearance [21]: 6.67 mL/min/kg; clearance [22]: 51.7 mL/min/kg; bioavailability [23]: 49%; bioavailability [24]: 27%
216 | – | – | – | 43 | 175 | 31 | 76 | 0.5 | 0.9 | 4.1 | 1 | 20 (≈ 17.3 µg/mL) | 0.9 | 7 | CCn1c(-c2cc(N3CCN(C4CC4)CC3)cnc2[C@H](C)OC)c2c3cc(ccc31)-c1csc(n1)C[C@H](NC(=O)[C@H]1[C@@H]3COC[C@@H]31)C(=O)N1CCC[C@H](N1)C(=O)OCC(C)(C)C2 | 2.1 | 4.9 | 0.8 | 1.9 | 8360 | logD [25]: 5.2; clearance [21]: 6.67 mL/min/kg; clearance [22]: 6.67 mL/min/kg; bioavailability [23]: 63%; bioavailability [24]: 88%
